Data: ChEMBL document CHEMBL1201862, “PubChem BioAssay data set” (2004)
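Five concentrations, 48 hours, 96-well plates. Here, GI50 denotes the concentration required for 50% inhibition of growth.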 Activity calls are given as the source filed them. Cut-off read from the data, not from the text of the source: active = GI50 up to about 1.1 µM and inactive = higher.

Tests used:
Assay in all cases: NCI tumour cell line growth inhibition, 48 h
786-0 = test system: 786-0
CCRF-CEM = test system: CCRF-CEM
COLO 205 = test system: COLO 205
DU-145 = test system: DU-145
HOP-62 = test system: HOP-62
HOP-92 = test system: HOP-92
K562 = test system: K562
KM12 = test system: KM12
LOX IMVI = test system: LOX IMVI
MDA-MB-435 = test system: MDA-MB-435
Malme-3M = test system: Malme-3M
OVCAR-5 = test system: OVCAR-5
PC-3 = test system: PC-3
SF-268 = test system: SF-268
SK-MEL-2 = test system: SK-MEL-2
SNB-75 = test system: SNB-75
SR = test system: SR
TK-10 = test system: TK-10
U-251 = test system: U-251
UO-31 = test system: UO-31

| Compound | GI50 (786-0) | GI50 (CCRF-CEM) | GI50 (COLO 205) | GI50 (DU-145) | GI50 (HOP-62) | GI50 (HOP-92) | GI50 (K562) | GI50 (KM12) | GI50 (LOX IMVI) | GI50 (MDA-MB-435) | GI50 (Malme-3M) | GI50 (OVCAR-5) | GI50 (PC-3) | GI50 (SF-268) | GI50 (SK-MEL-2) | GI50 (SNB-75) | GI50 (SR) | GI50 (TK-10) | GI50 (U-251) | GI50 (UO-31) |
| --- | --- | --- | --- | --- | --- | --- | --- | --- | --- | --- | --- | --- | --- | --- | --- | --- | --- | --- | --- | --- |
| C#CCNC(Cc1c[nH]cn1)C(=O)O (stereo not given) | > 100 µM (inactive) | > 100 µM (inactive) | > 100 µM (inactive) | > 100 µM (inactive) | > 100 µM (inactive) | > 100 µM (inactive) | > 100 µM (inactive) | > 100 µM (inactive) | > 100 µM (inactive) | > 100 µM (inactive) | > 100 µM (inactive) | > 100 µM (inactive) | > 100 µM (inactive) | > 100 µM (inactive) | > 100 µM (inactive) | > 100 µM (inactive) | > 100 µM (inactive) | > 100 µM (inactive) | > 100 µM (inactive) | > 100 µM (inactive) |
| COc1cc2c(cc1OC)C1(c3ccccc3)CN(C2)Cc2cc(OC)c(OC)cc21 | 31.6 µM (inactive) | 15.6 µM (inactive) | 17.1 µM (inactive) | 33.7 µM (inactive) | 40.6 µM (inactive) | 32.6 µM (inactive) | 29.1 µM (inactive) | 30.8 µM (inactive) | 34.8 µM (inactive) | 14.5 µM (inactive) | 36.4 µM (inactive) | 35.6 µM (inactive) | 31.3 µM (inactive) | 49.9 µM (inactive) | 25.7 µM (inactive) | 27.9 µM (inactive) | 5.3 µM (inactive) | 44.7 µM (inactive) | 22.2 µM (inactive) | 80.9 µM (inactive) |
| NC(=O)CCSC(CC(=O)c1ccc(Cl)cc1)c1ccc(Cl)cc1 (stereo not given) | 30 µM (inactive) | 2.93 µM (inactive) | 33 µM (inactive) | 27.5 µM (inactive) | 28.1 µM (inactive) | 15 µM (inactive) | 7.1 µM (inactive) | 6.11 µM (inactive) | 12.1 µM (inactive) | 16 µM (inactive) | 24.9 µM (inactive) | 32.7 µM (inactive) | 34.6 µM (inactive) | 27.8 µM (inactive) | 24.3 µM (inactive) | 40.1 µM (inactive) | 4.06 µM (inactive) | 48 µM (inactive) | 16.2 µM (inactive) | 26.7 µM (inactive) |
| Cc1ccc([S+]([O-])C[C@](NC(=O)OCc2ccccc2)(Sc2ccccc2)C(F)F)cc1 (stereo not given in full) | 13 µM (inactive) | 1.11 µM (active) | 19.4 µM (inactive) | 18.7 µM (inactive) | 35.8 µM (inactive) | 17.8 µM (inactive) | 10.2 µM (inactive) | 14.6 µM (inactive) | 4.16 µM (inactive) | 29.7 µM (inactive) | 21.3 µM (inactive) | 31.6 µM (inactive) | 21.2 µM (inactive) | 16.9 µM (inactive) | 27.6 µM (inactive) | 13.2 µM (inactive) | 10.8 µM (inactive) | 20.3 µM (inactive) | 17 µM (inactive) | 6.56 µM (inactive) |
| CC(=O)NCCc1c[nH]c2ccc(Cl)cc12 | > 100 µM (inactive) | 60.4 µM (inactive) | > 100 µM (inactive) | > 100 µM (inactive) | > 100 µM (inactive) | 79.8 µM (inactive) | > 100 µM (inactive) | > 100 µM (inactive) | > 100 µM (inactive) | > 100 µM (inactive) | > 100 µM (inactive) | > 100 µM (inactive) | > 100 µM (inactive) | > 100 µM (inactive) | > 100 µM (inactive) | 33.4 µM (inactive) | > 100 µM (inactive) | > 100 µM (inactive) | > 100 µM (inactive) | > 100 µM (inactive) |
